Data reported in patent publication US6936602B1, “Benzazepine derivatives, process for the preparation of the same and uses thereof” (Takeda Chemical Industries, Ltd., priority 1999, dated 2005).

| melting point [°C] | Structure (SMILES) |
| --- | --- |
| 223 to 224 | CCCOCCOc1ccc(-c2ccc3c(c2)C=C(C(=O)Nc2ccc(CN(C)C4CCOCC4)cc2)CCN3c2ccccc2)cc1.Cl |
| 157 to 158 | CCOCCN(C)c1ccc(-c2ccc3c(c2)C=C(C(=O)Nc2ccc(CN(C)C4CCOCC4)cc2)CCN3C=O)cc1 [Compound 4, 7-[4-[N-(2-ethoxyethyl)-N-methylamino]phenyl]-1-formyl-N-[4-[[N-methyl-N-(tetrahydro-2H-pyran-4-yl)amino]methyl]phenyl]-2,3-dihydro-1H-1-benzazepine-4-carboxamide] |
| 162 to 164 | CCOCCN(CC)c1ccc(-c2ccc3c(c2)C=C(C(=O)Nc2ccc(CN(C)C4CCOCC4)cc2)CCN3C=O)cc1 [Compound 5, 7-[4-[N-(2-ethoxyethyl)-N-ethylamino]phenyl]-1-formyl-N-[4-[[N-methyl-N-(tetrahydro-2H-pyran-4-yl)amino]methyl]phenyl]-2,3-dihydro-1H-1-benzazepine-4-carboxamide] |
| 146 to 149 | CCCOCCN(CC)c1ccc(-c2ccc3c(c2)C=C(C(=O)Nc2ccc(CN(C)C4CCOCC4)cc2)CCN3C=O)cc1 [Compound 6, 7-[4-[N-ethyl-N-(2-propoxyethyl)amino]phenyl]-1-formyl-N-[4-[[N-methyl-N-(tetrahydro-2H-pyran-4-yl)amino]methyl]phenyl]-2,3-dihydro-1H-1-benzazepine-4-carboxamide] |
| 157 to 160 | CCOCCCOc1ccc(-c2ccc3c(c2)C=C(C(=O)Nc2ccc(CN(C)C4CCOCC4)cc2)CCN3S(C)(=O)=O)cc1 [Compound 8, 7-[4-(3-ethoxypropoxy)phenyl)-1-methanesulfonyl-N-[4-[[N-methyl-N-(tetrahydro-2H-pyran-4-yl)amino]methyl]phenyl]-2,3-dihydro-1H-1-benzazepine-4-carboxamide] |
| 122 to 125 | CCOCCOc1ccc(-c2ccc3c(c2)C=C(C(=O)Nc2ccc(CN(C)C4CCOCC4)cc2)CCN3C)cc1 [Compound 9, 7-[4-(2-ethoxyethoxy)phenyl]-1-methyl-N-[4-[[N-methyl-N-(tetrahydro-2H-pyran-4-yl)amino]methyl]phenyl]-2,3-dihydro-1H-1-benzazepine-4-carboxamide] |
| 136 to 138 | CCCOCCOc1ccc(-c2ccc3c(c2)C=C(C(=O)Nc2ccc(CN(C)C4CCOCC4)cc2)CCN3C)cc1 [Compound 12, 1-methyl-N-[4-[[N-methyl-N-(tetrahydro-2H-pyran-4-yl)amino]methyl]phenyl]-7-[4-(2-propoxyethoxy)phenyl]-2,3-dihydro-1H-benzazepine-4-carboxamide] |
| 98 to 100 | CCOCCCOc1ccc(-c2ccc3c(c2)C=C(C(=O)Nc2ccc(CN(C)C4CCOCC4)cc2)CCN3C)cc1 [Compound 13, 7-[4-(3-ethoxypropoxy)phenyl]-1-methyl-N-[4-[[N-methyl-N-(tetrahydro-2H-pyran-4-yl)amino]methyl]phenyl]-2,3-dihydro-1H-1-benzazepine-4-carboxamide] |
| 161 to 162 | CC(C)OCCOc1ccc(-c2ccc3c(c2)C=C(C(=O)N(c2ccc(CN(C)C4CCOCC4)cc2)S(C)(=O)=O)CCN3)cc1 [Compound 15, 1-methylsulfonyl N-[4-[[N-methyl-N-(tetrahydro-2H-pyran-4-yl)amino]methyl]phenyl]-7-[4-(2-propoxy)ethoxyphenyl]-2,3-dihydro-1H-1-benzazepine-4-carboxamide] |
| 198 to 200 | CCOCCOc1ccc(-c2ccc3c(c2)C=C(C(=O)Nc2ccc(CN(C)C4CCOCC4)cc2)CCN3C=O)cc1Cl [Compound 21, 7-[3-chloro4-(2-ethoxy)ethoxyphenyl]-1-formyl-N-[4-[[N-methyl-N-(tetrahydro-2H-pyran-4-yl)amino]methyl]phenyl]-2,3-dihydro-1H-1-benzazepine-4-carboxamide] |
| 164 to 165 | CN1CCC(C(=O)Nc2ccc(CN(C)C3CCOCC3)cc2)=Cc2cc(-c3ccc4c(c3)OCCO4)ccc21 [Compound 24, 7-(2,3-dihydro-1,4-benzodioxin-6-yl)-1-methyl-N-[4-[[N-methyl-N-(tetrahydro-2H-pyran-4-yl)amino]methyl]phenyl]-2,3-dihydro-1H-1-benzazepine-4-carboxamide] |
| 144 to 147 | CCCN1CCC(C(=O)Nc2ccc(CN(C)C3CCOCC3)cc2)=Cc2cc(-c3ccc(OCCOCC)cc3)ccc21 [Compound 25, 7-[4-(2-ethoxyethoxy)phenyl]-N-[4-[[N-methyl-N-(tetrahydro-2H-pyran-4-yl)amino]methyl]phenyl]-1-propyl-2,3-dihydro-1H-1-benzazepine-4-carboxamide] |
| 167 to 169 | CCCOCCOc1ccc(-c2ccc3c(c2)C=C(C(=O)Nc2ccc(CN(C)C4CCOCC4)cc2)CCN3C(=O)CC)cc1 [Compound 29, 1-propionyl-7-[4-(2-propoxyethoxy)phenyl]-N-[4-[[N-methyl-N-(tetrahydro-2H-pyran-4-yl)amino]methyl]phenyl]-2,3-dihydro-1H-1-benzazepine-4-carboxamide] |
| 118 to 119 | CCCOCCOc1ccc(-c2ccc3c(c2)C=C(C(=O)Nc2ccc(CN(C)C4CCOCC4)cc2)CCN3Cc2ccccc2OC)cc1 [Compound 51, 1-(2-methoxybenzyl)-N-[4-[[N-methyl-N-(tetrahydropyran-4-yl)amino]methyl]phenyl]-7-(4-propoxyethoxyphenyl)-2,3-dihydro-1-benzazepine-4-carboxamide] |
| 113 to 114 | CCCOCCOc1ccc(-c2ccc3c(c2)C=C(C(=O)Nc2ccc(CN(C)C4CCOCC4)cc2)CCN3Cc2cccc(OC)c2)cc1 [Compound 53, 1-(3-methoxybenzyl)-N-[4-[[N-methyl-N-(tetrahydropyran-4-yl)amino]methyl]phenyl]-7-(4-propoxyethoxyphenyl)-2,3-dihydro-1-benzazepine-4-carboxamide] |
| 160 to 161 | CCCOCCOc1ccc(-c2ccc3c(c2)C=C(C(=O)Nc2ccc(CN(C)C4CCOCC4)cc2)CCN3Cc2ccc(OC)cc2)cc1 [Compound 55, 1-(4-methoxybenzyl)-N-[4-[[N-methyl-N-(tetrahydropyran-4-yl)amino]methyl]phenyl]-7-(4-propoxyethoxyphenyl)-2,3-dihydro-1-benzazepine-4-carboxamide] |

| Structure (SMILES) | melting point [°C] |
| --- | --- |
| CCCCOCCOc1ccc(-c2ccc3c(c2)C=C(C(=O)Nc2ccc(CN(C)C4CCOCC4)cc2)CCN3C)cc1 [Compound 18, 7-[4-(2-butoxyethoxy)phenyl]-1-methyl-N-[4-[[N-methyl-N-(tetrahydro-2H-pyran-4-yl)amino]methyl]phenyl]-2,3-dihydro-1H-1-benzazepine-4-carboxamide] | 107 to 110 |
| CCCCOCCOc1ccc(-c2ccc3c(c2)C=C(C(=O)Nc2ccc(CN(C)C4CCOCC4)cc2)CCN3)cc1 [Compound 28, 7-[4-(2-butoxyethoxy)phenyl]-N-[4-[[N-methyl-N-(tetrahydro-2H-pyran-4-yl)amino]methyl]phenyl]-2,3-dihydro-1H-1-benzazepine-4-carboxamide] | 119 to 123 |
| CCCCOCCOc1ccc(-c2ccc3c(c2)C=C(C(=O)Nc2ccc(CN(C)C4CCOCC4)cc2)CCN3C2CC2)cc1 [Compound 31, 7-[4-(2-butoxyethoxy)phenyl]-1-cyclopropyl-N-[4-[[N-methyl-N-(tetrahydro-2H-pyran-4-yl)amino]methyl]phenyl]-2,3-dihydro-1H-1-benzazepine-4-carboxamide] | 117 to 120 |
| CCCCOCCOc1ccc(-c2ccc3c(c2)C=C(C(=O)Nc2ccc(CN(C)C4CCOCC4)cc2)CCN3CC2CCCCC2)cc1 [Compound 34, 7-[4-(2-butoxyethoxy)phenyl]-1-cyclohexylmethyl-N-[4-[[N-methyl-N-(tetrahydro-2H-pyran-4-yl)amino]methyl]phenyl]-2,3-dihydro-1H-1-benzazepine-4-carboxamide] | 115 to 117 |
| CCCCOCCOc1ccc(-c2ccc3c(c2)C=C(C(=O)Nc2ccc(CN(C)C4CCOCC4)cc2)CCN3c2cccc(OC)c2)cc1 [Compound 40, 7-[4-(2-butoxyethoxy)phenyl]-1-(3-methoxyphenyl)-N-(4-[[N-methyl-N-(tetrahydro-2H-pyran-4-yl)amino]methyl]phenyl]-2,3-dihydro-1H-1-benzazepine-4-carboxamide] | 94 to 97 |
| CCCCOCCOc1ccc(-c2ccc3c(c2)C=C(C(=O)Nc2ccc(CN(C)C4CCOCC4)cc2)CCN3c2cnc(C)o2)cc1 [Compound 44, 7-[4-(2-butoxyethoxy)phenyl]-1-(2-methyloxazol-5-yl)-N-[4-[[N-methyl-N-(tetrahydro-2H-pyran-4-yl)amino]methyl]phenyl]-2,3-dihydro-1H-1-benzazepine-4-carboxamide] | 125 to 128 |
| CCCCOCCOc1ccc(-c2ccc3c(c2)C=C(C(=O)Nc2ccc(CN(C)C4CCOCC4)cc2)CCN3c2ccc(S(=O)(=O)N(C)C)cc2)cc1 [Compound 47, 7-[4-(2-butoxyethoxy)phenyl]-1-(N,N-dimethyl-4-sulfamoylphenyl)-N-[4-[[N-methyl-N-(tetrahydro-2H-pyran-4-yl)amino]methyl]phenyl]-2,3-dihydro-1H-1-benzazepine-4-carboxamide] | 94 to 98 |
| CCCCOCCOc1ccc(-c2ccc3c(c2)C=C(C(=O)Nc2ccc(CN(C)C4CCOCC4)cc2)CCN3Cc2ccccc2OC)cc1 [Compound 52, 7-(4-butoxyethoxyphenyl)-1-(2-methoxybenzyl)-N-[4-[[N-methyl-N-(tetrahydropyran-4-yl)amino]methyl]phenyl]-2,3-dihydro-1-benzazepine-4-carboxamide] | 111.5 to 112.5 |
| CCCCOCCOc1ccc(-c2ccc3c(c2)C=C(C(=O)Nc2ccc(CN(C)C4CCOCC4)cc2)CCN3Cc2cccc(OC)c2)cc1 [Compound 54, 7-(4-butoxyethoxyphenyl)-1-(3-methoxybenzyl)-N-[4-[[N-methyl-N-(tetrahydropyran-4-yl)amino]methyl]phenyl]-2,3-dihydro-1-benzazepine-4-carboxamide] | 107.5 to 108.5 |
| CCCCOCCOc1ccc(-c2ccc3c(c2)C=C(C(=O)Nc2ccc(CN(C)C4CCOCC4)cc2)CCN3Cc2ccc(OC)cc2)cc1 [Compound 56, 7-(4-butoxyethoxyphenyl)-1-(4-methoxybenzyl)-N-[4-[[N-methyl-N-(tetrahydropyran-4-yl)amino]methyl]phenyl]-2,3-dihydro-1-benzazepine-4-carboxamide] | 151 to 152 |
